These are literature values, as cited in article PMC3206815, “An Essential Farnesylated Kinesin in Trypanosoma brucei” (PLoS ONE, 2011).

This series deals with T1, TB-PFT (T. brucei protein farnesyl transferase) (Trypanosoma brucei, UniProt Q57U08+Q580J3).
T1 construct: gene Tb07.8P12.660; heterodimer
T1 sequence (Q57U08 1-585): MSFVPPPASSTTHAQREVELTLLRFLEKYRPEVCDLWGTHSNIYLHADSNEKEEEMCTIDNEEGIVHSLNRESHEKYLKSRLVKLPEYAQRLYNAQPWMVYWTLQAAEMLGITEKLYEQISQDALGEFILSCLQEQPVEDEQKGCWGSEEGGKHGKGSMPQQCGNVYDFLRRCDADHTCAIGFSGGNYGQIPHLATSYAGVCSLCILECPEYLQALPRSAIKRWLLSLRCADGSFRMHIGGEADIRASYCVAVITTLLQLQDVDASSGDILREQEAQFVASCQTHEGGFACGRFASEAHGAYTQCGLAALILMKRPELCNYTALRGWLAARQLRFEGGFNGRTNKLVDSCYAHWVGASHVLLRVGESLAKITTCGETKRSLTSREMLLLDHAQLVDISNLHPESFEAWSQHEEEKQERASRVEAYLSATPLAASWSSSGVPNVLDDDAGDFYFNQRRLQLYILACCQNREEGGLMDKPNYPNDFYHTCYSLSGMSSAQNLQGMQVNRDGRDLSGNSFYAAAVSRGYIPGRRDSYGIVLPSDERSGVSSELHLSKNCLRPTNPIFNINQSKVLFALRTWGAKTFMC
T1 sequence (Q580J3 1-612): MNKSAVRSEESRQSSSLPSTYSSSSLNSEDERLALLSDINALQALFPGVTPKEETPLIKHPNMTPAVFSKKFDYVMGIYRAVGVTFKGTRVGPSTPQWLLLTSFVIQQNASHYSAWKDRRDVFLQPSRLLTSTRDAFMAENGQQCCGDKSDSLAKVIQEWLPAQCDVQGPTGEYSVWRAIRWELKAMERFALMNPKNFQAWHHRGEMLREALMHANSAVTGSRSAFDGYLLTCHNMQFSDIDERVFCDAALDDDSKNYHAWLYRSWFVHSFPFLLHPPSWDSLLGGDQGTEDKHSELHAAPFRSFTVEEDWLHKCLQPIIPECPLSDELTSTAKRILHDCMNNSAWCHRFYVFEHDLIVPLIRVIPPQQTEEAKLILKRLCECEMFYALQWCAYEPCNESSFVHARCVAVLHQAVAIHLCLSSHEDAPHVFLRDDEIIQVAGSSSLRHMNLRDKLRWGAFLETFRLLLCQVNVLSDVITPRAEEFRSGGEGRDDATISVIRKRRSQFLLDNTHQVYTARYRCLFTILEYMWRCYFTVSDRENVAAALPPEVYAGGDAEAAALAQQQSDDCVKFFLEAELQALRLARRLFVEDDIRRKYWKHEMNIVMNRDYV
In words: PFT inhibition, method not described here. The format is biochemical. The conditions noted are these: value printed without citation or assay method; cited from earlier work.

By IC50 is commonly meant the midpoint of a concentration-inhibition curve. In the case of LN-59, the concentration for half-maximal inhibition (IC50) is 35 nM.
